Data set [1] addresses BuChE (butyrylcholinesterase) (Homo sapiens, UniProt P06276). The experiment in a line: Inhibition of human serum BuChE at 10 uM using S-butyrylthiocholine iodide as substrate preincubated for 6 mins followed by substrate addition measured up to 180 secs by Ellman's method relative to control. Particulars: probe S-butyrylthiocholine iodide. (DTNB colorimetry detects thiols as they appear.)

Data set [2] has as its target T1, Acetylcholinesterase (Homo sapiens, UniProt P22303). As to the kind of experiment: Inhibition of human erythrocyte AChE at 10 uM using acetylthiocholine iodide as substrate preincubated for 6 mins followed by substrate addition measured up to 180 secs by Ellman's method relative to control.
The target of data set [3] is T1, Acetylcholinesterase. As to the kind of experiment: Inhibition of human erythrocyte AChE using acetylthiocholine iodide as substrate preincubated for 6 mins followed by substrate addition measured up to 180 secs by Ellman's method.
Data set [4] is described as follows: Cytotoxicity against human SH-SY5Y cells assessed as cell viability at 50 uM after 24 hrs by MTT assay relative to control. The class given is cell-based. Particulars: read-out: Activity. On the technique in general: Formazan colour is commonly taken as a measure of viable cells.
Data set [5] is described as follows: Metal chelating activity assessed as compound-Cu2+ complex formation at 25 uM by UV-Vis spectrophotometry.
The subject of data set [6] is Mus musculus. As to the kind of experiment: Hepatotoxicity in Kunming mouse at 1000 mg/kg, po measured at day 14 by microscopic analysis. The class given is toxicity, organism-based. The note with it: in vivo.
Data set [7] deals with Mus musculus. As to the kind of experiment: Antialzheimer activity in scopolamine induced Kunming mouse cognitive deficit model assessed as latency time at 10.3 mg/kg, po treated for 1 hr followed by training trial and subsequent addition of scopolamine at 30 mins post trial measured for 24 hrs interval. Format: functional.
A short description of data set [8]: Cytotoxicity against human SH-SY5Y cells assessed as cell viability at 25 uM after 24 hrs by MTT assay relative to control. The class given is cell-based. The note with it: read-out: Activity.
Data set [9] deals with Mus musculus. The experiment in a line: Antialzheimer activity in scopolamine induced po dosed Kunming mouse cognitive deficit model assessed as reduction in number of errors treated for 1 hr followed by training trial and subsequent addition of scopolamine at 30 mins post trial measured for 24 hrs interval. The class given is functional, organism-based.
Data set [10] can be described thus: Cytotoxicity against human SH-SY5Y cells assessed as cell viability at 100 uM after 24 hrs by MTT assay relative to control. The class given is cell-based. Particulars: read-out: Activity.
Another data set is described as follows: in vitro. The note with it: PAMPA.
For data set [11], the system named is Mus musculus. The experiment in a line: Antialzheimer activity in scopolamine induced Kunming mouse cognitive deficit model assessed as latency time at 20.6 mg/kg, po treated for 1 hr followed by training trial and subsequent addition of scopolamine at 30 mins post trial measured for 24 hrs interval. Format: functional.
The subject of data set [12] is Mus musculus. The experiment in a line: Toxicity in Kunming mouse assessed as change in water consumption at 1000 mg/kg, po observed continuously for the first 4 hrs and intermittently for next 24 hrs and occasionally thereafter for 14 days. The class given is organism-based. The note with it: in vivo.
The subject of data set [13] is Mus musculus. The experiment in a line: Antialzheimer activity in scopolamine induced po dosed Kunming mouse cognitive deficit model assessed as reduction in latency treated for 1 hr followed by training trial and subsequent addition of scopolamine at 30 mins post trial measured for 24 hrs interval. Format: functional, organism-based.
Data set [14] in a line: Metal chelating activity assessed as association constant for compound-Fe3+ complex formation by Job's plot analysis.
For data set [15], the target named is T1, Acetylcholinesterase. As to the kind of experiment: Potency index, ratio of donepenzil IC50 to compound IC50 for human erythrocyte AChE.
For data set [16], the system named is Mus musculus. As to the kind of experiment: Nephrotoxicity in Kunming mouse at 1000 mg/kg, po measured at day 14 by microscopic analysis. The note with it: in vivo. The class given is toxicity, organism-based.
The test system of data set [17] is Mus musculus. The experiment in a line: Toxicity in Kunming mouse assessed as reduction in body weight at 1000 mg/kg, po observed continuously for the first 4 hrs and intermittently for next 24 hrs and occasionally thereafter for 14 days. Format: organism-based. Particulars: in vivo.
A short description of data set [18]: Metal chelating activity assessed as compound-Fe2+ complex formation at 25 uM by UV-Vis spectrophotometry.
Data set [19] in a line: Metal chelating activity assessed as compound-Fe3+ complex formation at 25 uM by UV-Vis spectrophotometry.
Data set [20] addresses T1, Acetylcholinesterase. The experiment in a line: […] inhibition of human erythrocyte AChE using acetylthiocholine iodide as substrate preincubated for 6 mins followed by substrate addition measured up to 180 secs by Lineweaver-Burk plot analysis.
Data set [21] deals with T1, Acetylcholinesterase. The experiment in a line: Mixed type inhibition of human erythrocyte AChE at 12.5 to 50 nM using acetylthiocholine iodide as substrate preincubated for 6 mins followed by substrate addition measured up to 180 secs by Lineweaver-Burk plot analysis.
The test system of data set [22] is Mus musculus. The experiment in a line: Toxicity in Kunming mouse assessed as change in food consumption at 1000 mg/kg, po observed continuously for the first 4 hrs and intermittently for next 24 hrs and occasionally thereafter for 14 days. The class given is organism-based. Particulars: in vivo.
The nature of data set [23]: Metal chelating activity assessed as compound-Zn2+ complex formation at 25 uM by UV-Vis spectrophotometry.
A short description of data set [24]: Cytotoxicity against human SH-SY5Y cells assessed as cell viability at 12.5 uM after 24 hrs by MTT assay relative to control. Format: cell-based. The note with it: read-out: Activity.
For data set [25], the system named is Mus musculus. The experiment in a line: Toxicity in Kunming mouse assessed as death at 1000 mg/kg, po observed continuously for the first 4 hrs and intermittently for next 24 hrs and occasionally thereafter for 14 days. The class given is organism-based. Particulars: in vivo.
The test system of data set [26] is Mus musculus. As to the kind of experiment: Cardiotoxicity in Kunming mouse at 1000 mg/kg, po measured at day 14 by microscopic analysis. The class given is toxicity, organism-based. Particulars: in vivo.
Data set [27] has as its system Mus musculus. As to the kind of experiment: Antialzheimer activity in scopolamine induced Kunming mouse cognitive deficit model assessed as latency time at 5.2 mg/kg, po treated for 1 hr followed by training trial and subsequent addition of scopolamine at 30 mins post trial measured for 24 hrs interval. Format: functional.

Active and inactive are the calls of the source. The calls are words filed in the database; no cut-off is given here.

Sequence of BuChE (butyrylcholinesterase) (P06276 whole entry): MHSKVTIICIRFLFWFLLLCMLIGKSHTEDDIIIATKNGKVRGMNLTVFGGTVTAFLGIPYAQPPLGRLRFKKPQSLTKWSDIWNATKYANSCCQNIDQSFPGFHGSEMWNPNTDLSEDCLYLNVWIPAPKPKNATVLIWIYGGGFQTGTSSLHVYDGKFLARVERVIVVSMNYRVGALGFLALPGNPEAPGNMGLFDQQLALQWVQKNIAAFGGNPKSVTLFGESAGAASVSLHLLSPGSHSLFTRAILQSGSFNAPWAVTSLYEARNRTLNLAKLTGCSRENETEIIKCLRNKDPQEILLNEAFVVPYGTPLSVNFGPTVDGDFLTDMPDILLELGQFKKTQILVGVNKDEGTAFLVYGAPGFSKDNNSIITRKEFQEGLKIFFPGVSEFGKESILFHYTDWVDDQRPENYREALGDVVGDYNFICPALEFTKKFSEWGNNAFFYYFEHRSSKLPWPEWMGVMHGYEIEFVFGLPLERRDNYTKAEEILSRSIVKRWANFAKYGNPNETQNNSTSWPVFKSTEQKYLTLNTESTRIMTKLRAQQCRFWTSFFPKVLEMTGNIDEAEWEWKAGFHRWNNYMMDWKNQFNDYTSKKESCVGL
T1 sequence (P22303 whole entry): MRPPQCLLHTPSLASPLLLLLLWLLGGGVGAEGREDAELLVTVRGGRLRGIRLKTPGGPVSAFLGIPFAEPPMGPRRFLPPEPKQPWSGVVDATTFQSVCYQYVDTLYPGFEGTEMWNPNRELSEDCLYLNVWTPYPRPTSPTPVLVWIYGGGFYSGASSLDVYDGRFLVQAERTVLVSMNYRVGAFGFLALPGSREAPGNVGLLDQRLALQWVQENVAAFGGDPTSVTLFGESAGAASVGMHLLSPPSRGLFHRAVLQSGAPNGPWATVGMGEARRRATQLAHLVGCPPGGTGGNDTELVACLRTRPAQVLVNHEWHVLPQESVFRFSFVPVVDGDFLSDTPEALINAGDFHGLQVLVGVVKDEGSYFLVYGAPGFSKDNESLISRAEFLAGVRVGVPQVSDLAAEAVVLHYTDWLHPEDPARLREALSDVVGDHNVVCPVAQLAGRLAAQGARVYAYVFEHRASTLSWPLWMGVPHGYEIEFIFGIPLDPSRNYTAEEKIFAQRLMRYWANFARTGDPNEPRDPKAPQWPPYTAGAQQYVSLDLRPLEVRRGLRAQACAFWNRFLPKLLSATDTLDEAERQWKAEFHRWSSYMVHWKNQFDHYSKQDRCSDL
Description for in vitro: Effective permeability at 25 ug/ml after 16 hrs by PAMPA

With `Cc1cc(=O)oc2cc(OCCSC(=S)N3CCOCC3)ccc12`, the inhibition at 0.05 h, 10 µM in [1] is below 5%. At Acetylcholinesterase [2], this compound showed an inhibition of 11%.
Taken in the same sequence, the figures for `Cc1cc(=O)oc2cc(OCCSC(=S)N(CCO)CCO)ccc12` were below 5% and 34.5%.
The compound `Cc1cc(=O)oc2cc(OCCSC(=S)N3CCCC3)ccc12` came in with an inhibition at 0.05 h, 10 µM in data set [1] below 5%. The same compound came in with an IC50 against Acetylcholinesterase [3] of 890 nM.
`Cc1cc(=O)oc2cc(OCCSC(=S)N3CCCCC3)ccc12` displayed an inhibition at 0.05 h, 10 µM in data set [1] of 37.2%. At Acetylcholinesterase [3], this compound returned an IC50 of 470 nM.
Turning to `Cc1cc(=O)oc2cc(OCCCCSC(=S)N3CCCCC3)ccc12`, in [4], the viability at 24 h, 50 µM worked out at 90.1%. Further, the outcome in data set [5], in data set [18] and in data set [23] was inactive. Further, the Activity result in the data set with Mus musculus [6] was “Non-Toxic”; with Mus musculus [9], “Dose-dependent effect”; in the data set on Mus musculus [12], “Non-Toxic”; with Mus musculus [13] it was “Dose-dependent effect”; with Mus musculus [16], “Non-Toxic”; in the data set on Mus musculus [17] it was “Non-Toxic”. Also, the Activity result in the data set with Mus musculus [22], in the data set with Mus musculus [25] and in the data set on Mus musculus [26] was “Non-Toxic” throughout. Besides, the figures for the Time with Mus musculus [7], in the data set on Mus musculus [11] and in the data set with Mus musculus [27] were 182 s, 192 s and 151 s, respectively. In addition, in data set [8], the viability at 24 h, 25 µM was determined as 101%. Besides, the viability at 24 h, 100 µM in data set [10] amounted to 80.3%. The Papp at 16 h, 25 ug/ml in “in vitro” was determined as 9.21 ×10⁻⁶ cm/s. Moreover, in data set [14], the Ka amounted to 1.69 ×10³ /M. The Ratio IC50 on Acetylcholinesterase [15] was found to be 1.5. The outcome in [19] was Active. On Acetylcholinesterase [20], the affinity, expressed as Ki, was 37.1 nM. Further, the inhibition entry at Acetylcholinesterase [21] was “Active”. Besides, the inhibition at 0.05 h, 10 µM in [1] came to 15.3%. Moreover, in data set [24], the viability at 24 h, 12.5 µM stood at 99.2%. The IC50 on Acetylcholinesterase [3] is 27 nM.
Turning to `CCN(CC)C(=S)SCCOc1ccc2c(C)cc(=O)oc2c1`, the inhibition at 0.05 h, 10 µM in [1] is 10.9%. The same compound displayed an IC50 at Acetylcholinesterase [3] of 1940 nM.
Regarding `Cc1cc(=O)oc2cc(OCCSC(=S)N3CCN(c4ncccn4)CC3)ccc12`, the inhibition at 0.05 h, 10 µM in [1] is below 5%. Moreover, the inhibition on Acetylcholinesterase [2] was found to be 12.3%.
Regarding `Cc1cc(=O)oc2cc(OCCSC(=S)N(C)C)ccc12`, in data set [1], the inhibition at 0.05 h, 10 µM was below 5%. On Acetylcholinesterase [3], this compound yielded an IC50 of 10600 nM.
In [1], `Cc1cc(=O)oc2cc(OCCCCCCSC(=S)N3CCCCC3)ccc12` came in with an inhibition at 0.05 h, 10 µM of 6.21%. On Acetylcholinesterase [3], this compound had an IC50 of 610 nM.
Consider `Cc1cc(=O)oc2cc(OCCCCCSC(=S)N3CCCCC3)ccc12`, for which, in data set [1], the inhibition at 0.05 h, 10 µM was 10.1%. On Acetylcholinesterase [3], this compound yielded an IC50 of 210 nM.
On the same counts, the results for `Cc1cc(=O)oc2cc(OCCSC(=S)N3CCN(C(C)C)CC3)ccc12` are 28.1% and 1990 nM.
Taken in the same sequence, the figures for `Cc1cc(=O)oc2cc(OCCSC(=S)N3CCC(N4CCCCC4)CC3)ccc12` were 24.3% and 1160 nM.
In the case of `Cc1cc(=O)oc2cc(OCCSC(=S)N3CCN(C)CC3)ccc12`, the inhibition at 0.05 h, 10 µM in data set [1] was below 5%. On Acetylcholinesterase [2], the inhibition came out at 36.8%.
On the same counts, the results for `Cc1cc(=O)oc2cc(OCCSC(=S)N3CCC(O)CC3)ccc12` are below 5% and below 5%.
Take `Cc1cc(=O)oc2cc(OCCSC(=S)N3CCN(C4CC4)CC3)ccc12`: the inhibition at 0.05 h, 10 µM in data set [1] is below 5%. For the same compound, the inhibition at Acetylcholinesterase [2] was 18.7%.
In data set [1], `Cc1cc(=O)oc2cc(OCCCCCCCCSC(=S)N3CCCCC3)ccc12` gave an inhibition at 0.05 h, 10 µM below 5%. The compound also registered an inhibition against Acetylcholinesterase [2] below 5%.
The compound `Cc1cc(=O)oc2cc(OCCCSC(=S)N3CCCCC3)ccc12` gave an inhibition at 0.05 h, 10 µM in [1] of 31.2%. Further, the IC50 at Acetylcholinesterase [3] amounted to 290 nM.

As usually defined, the inhibition is the relative decrease from the control value, in per cent. What is called IC50 is the concentration that inhibits the measured activity by half. A lower IC50 goes with inhibition by little substance. A word on the Papp: it is the rate of passage across a membrane or cell layer, normalised by area and donor concentration. High values mean ready permeation, low ones poor permeation. What is called Ki is a measure of affinity in units of concentration, obtained from inhibition or displacement. A higher Ki goes with weaker binding.

For the origin of these results see ChEMBL document CHEMBL4145512, “Design, synthesis and biological evaluation of new coumarin-dithiocarbamate hybrids as multifunctional agents for the treatment of Alzheimer's disease” (Eur J Med Chem, 2018).
